Experimental data: ChEMBL document CHEMBL1641518, “Synthesis and biological evaluation of tubulysin D analogs related to stereoisomers of tubuvaline” (Bioorg Med Chem Lett, 2011)

What was measured:
Tubulin = Tubulin (Sus scrofa, UniProt P02554+P02550); test: Inhibition of porcine brain tubulin polymerization by microtubule assembly assay
HL-60 = test: Cytotoxicity against human HL60 cells after 72 hrs by MTT assay; assay type: functional, cell-based; conditions: HL-60, 72 h
HCT-116 = test: Cytotoxicity against human HCT116 cells after 72 hrs by MTT assay; assay type: functional, cell-based; conditions: HCT-116, 72 h
MCF7 = test: Cytotoxicity against human MCF7 cells after 72 hrs by MTT assay; assay type: functional, cell-based; conditions: MCF7, 72 h
A549 = test: Cytotoxicity against human A549 cells after 72 hrs by MTT assay; assay type: functional, cell-based; conditions: A549, 72 h

CC[C@H](C)[C@H](NC(=O)[C@H]1CCCCN1C)C(=O)N[C@@H](C[C@H](OC(C)=O)c1nc(C(=O)N[C@@H](Cc2ccccc2)C[C@H](C)C(=O)O)cs1)C(C)C
IC50 (Tubulin): 6300 nM | IC50 (HL-60): 3600 nM | IC50 (HCT-116): > 10000 nM | IC50 (MCF7): > 10000 nM | IC50 (A549): > 10000 nM

CC[C@H](C)[C@H](NC(=O)[C@H]1CCCCN1C)C(=O)N[C@H](C[C@H](OC(C)=O)c1nc(C(=O)N[C@@H](Cc2ccccc2)C[C@H](C)C(=O)O)cs1)C(C)C [11-EPI-TUBULYSIN D]
IC50 (Tubulin): 1400 nM | IC50 (HL-60): 3.1 nM | IC50 (HCT-116): 13 nM | IC50 (MCF7): 280 nM | IC50 (A549): 43 nM

CC[C@H](C)[C@H](NC(=O)[C@H]1CCCCN1C)C(=O)N[C@@H](C[C@@H](OC(C)=O)c1nc(C(=O)N[C@@H](Cc2ccccc2)C[C@H](C)C(=O)O)cs1)C(C)C [13-EPI-TUBULYSIN D]
IC50 (Tubulin): 1700 nM | IC50 (HL-60): 98 nM | IC50 (HCT-116): 920 nM | IC50 (MCF7): 240 nM | IC50 (A549): 1200 nM

CC[C@H](C)[C@H](NC(=O)[C@H]1CCCCN1C)C(=O)N(COC(=O)CC(C)C)[C@H](C[C@@H](OC(C)=O)c1nc(C(=O)N[C@@H](Cc2ccccc2)C[C@H](C)C(=O)O)cs1)C(C)C [TUBULYSIN D]
IC50 (Tubulin): 1700 nM | IC50 (HL-60): 0.0047 nM | IC50 (HCT-116): 0.0031 nM | IC50 (MCF7): 0.67 nM | IC50 (A549): 0.013 nM

CC[C@]1(O)C[C@@H]2CN(CCc3c([nH]c4ccccc34)[C@@](C(=O)OC)(c3cc4c(cc3OC)N(C)[C@H]3[C@@](O)(C(=O)OC)[C@H](OC(C)=O)[C@]5(CC)C=CCN6CC[C@]43[C@@H]65)C2)C1 [VINBLASTINE]
IC50 (HL-60): 1 nM | IC50 (HCT-116): 27 nM | IC50 (MCF7): 0.79 nM | IC50 (A549): 17 nM
